According to patent US4594329A, “CRF analogs” (The Salk Institute for Biological Studies, priority 1984, dated 1986):
Square brackets hold non-standard residues; d marks the D form. Peptide text beside a SMILES is read from it. * marks the point of attachment. hArg = N=C(N)NCCCC[C@H](N)C(=O)O; Nle = CCCC[C@H](N)C(=O)O; Orn = NCCC[C@H](N)C(=O)O; Bz = O=C(c1ccccc1)*

Columns and labels:
[1] = tested on: cultured rat pituitary cells; assay: secretion of ACTH and β-endorphin by cultured rat pituitary cells; type: cell-based
Description: (§1) The synthetic peptide AHC and oCRF were examined for their effects on the secretion of ACTH and β-endorphin in vitro and was also in vivo. The potency of synthetic oCRF to stimulate the secretion of ACTH and β-endorphin by cultured rat pituitary cells was measured using the procedure as generally set forth in Endocrinology, 91, 562 (1972). […] In vivo testing is carried out using the general procedure set forth in C. Rivier et al., Science, 218, 377 (1982).

[2] = lowering of blood pressure, in vivo testing; details: for lowering of blood pressure: general procedure of Example III; for lowering of blood pressure compared with rCRF: comparison with rCRF
Description: as §1

[3] = general procedure of Example III

Compound	stimulates the secretion of ACTH and β-END-LI [1, 3]	lowering of blood pressure [2]	secretion of ACTH and β-END-LI, amount relative to oCRF ([1]; % of oCRF, general procedure of Example III)	secretion of ACTH and β-END-LI compared with oCRF ([1]; comparison with oCRF)	lowering of blood pressure compared with rCRF [2]
CC[C@H](C)[C@H](NC(=O)[C@@H]1CCCN1C(=O)[C@@H]1CCCN1)C(=O)N[C@@H](CO)C(=O)N[C@@H](CC(C)C)C(=O)N[C@@H](CC(=O)O)C(=O)N[C@@H](CC(C)C)C(=O)N[C@H](C(=O)N[C@@H](CC(C)C)C(=O)N[C@@H](Cc1c[nH]cn1)C(=O)N[C@@H](CC(C)C)C(=O)N[C@@H](CC(C)C)C(=O)N[C@@H](CCCNC(=N)N)C(=O)N[C@@H](CCC(=O)O)C(=O)N[C@@H](CCSC)C(=O)N[C@@H](CC(C)C)C(=O)N[C@@H](CCC(=O)O)C(=O)N[C@@H](CCSC)C(=O)N[C@@H](CCC(=O)O)C(=O)N[C@@H](CCCN)C(=O)N[C@@H](C)C(=O)N[C@@H](CCC(=O)O)C(=O)N[C@@H](CCC(N)=O)C(=O)N[C@@H](CCC(=O)O)C(=O)N[C@@H](C)C(=O)N[C@@H](CCC(=O)O)C(=O)N[C@@H](CCC(N)=O)C(=O)N[C@@H](C)C(=O)N[C@@H](C)C(=O)N[C@@H](CC(C)C)C(=O)N[C@@H](CC(N)=O)C(=O)N[C@@H](CCCNC(=N)N)C(=O)N[C@@H](CCCCNC(=N)N)C(=O)N[C@@H](CC(C)C)C(=O)N[C@@H](CC(C)C)C(=O)N[C@@H](CCC(=O)O)C(=O)N[C@@H](CCC(=O)O)C(=O)N[C@@H](C)C(N)=O)[C@@H](C)O (H-PPISLDLTLHLLREMLEME[Orn]AEQEAEQAALNR[hArg]LLEEA-NH2)	stimulates the secretion of ACTH and β-END-LI	very significant lowering of bloood pressure			
H-SQEPPISLDLTFHLLREVLEMTRADQLAQQAHSNRRLLDIA-NH2 [[Arg^23,36]-oCRF]		very significant lowering of blood pressure	about 370%		
H-SQEPPISLDLTFHLLRE[Nle]LE[Nle]TKADQLRQQAHSNRKLLDIA-NH2 [[Nle^18,21,Arg^28]-oCRF]	stimulates the secretion of ACTH and β-END-LI	very significant lowering of blood pressure			
CCCC[C@H](NC(=O)[C@H](CCC(=O)O)NC(=O)[C@H](CCCNC(=N)N)NC(=O)[C@H](CC(C)C)NC(=O)[C@H](CC(C)C)NC(=O)[C@H](Cc1c[nH]cn1)NC(=O)[C@H](Cc1ccccc1)NC(=O)[C@@H](NC(=O)[C@H](CC(C)C)NC(=O)[C@H](CC(=O)O)NC(=O)[C@H](CC(C)C)NC(=O)[C@H](CO)NC(=O)[C@@H](NC(=O)[C@@H]1CCCN1C(=O)[C@@H]1CCCN1C(=O)[C@H](CCC(=O)O)NC(=O)[C@@H](N)CCC(N)=O)[C@@H](C)CC)[C@@H](C)O)C(=O)N[C@@H](CC(C)C)C(=O)N[C@@H](CCC(=O)O)C(=O)N[C@@H](CCSC)C(=O)N[C@H](C(=O)N[C@@H](CCCCN)C(=O)N[C@@H](C)C(=O)N[C@@H](CC(=O)O)C(=O)N[C@@H](CCC(N)=O)C(=O)N[C@@H](CC(C)C)C(=O)N[C@@H](C)C(=O)N[C@@H](CCC(N)=O)C(=O)N[C@@H](CCC(N)=O)C(=O)N[C@@H](C)C(=O)N[C@@H](Cc1c[nH]cn1)C(=O)N[C@@H](CO)C(=O)N[C@@H](CC(N)=O)C(=O)N[C@@H](CCCNC(=N)N)C(=O)N[C@@H](CCCCN)C(=O)N[C@@H](Cc1ccc(O)cc1)C(=O)N[C@@H](CC(C)C)C(=O)N[C@@H](CC(=O)O)C(=O)N[C@@H](CCC(=O)O)C(=O)N[C@@H](C)C(N)=O)[C@@H](C)O [[Nle^18,Tyr^37,Glu^40]-oCRF(2-41)] (H-QEPPISLDLTFHLLRE[Nle]LEMTKADQLAQQAHSNRKYLDEA-NH2)	stimulates the secretion of ACTH and β-END-LI	very significant lowering of blood pressure			
CCCC[C@H](NC(=O)[C@H](CCC(=O)O)NC(=O)[C@H](CC(C)C)NC(=O)[C@@H](NC(=O)[C@H](CCC(=O)O)NC(=O)[C@H](CCCNC(=N)N)NC(=O)[C@H](CC(C)C)NC(=O)[C@H](CC(C)C)NC(=O)[C@H](Cc1c[nH]cn1)NC(=O)[C@H](Cc1ccccc1)NC(=O)[C@@H](NC(=O)[C@H](CC(C)C)NC(=O)[C@H](CC(=O)O)NC(=O)[C@H](CC(C)C)NC(=O)[C@H](CO)NC(=O)[C@@H](NC(=O)[C@@H]1CCCN1C(=O)[C@H]1CCCN1)[C@@H](C)CC)[C@@H](C)O)C(C)C)C(=O)N[C@@H](C)C(=O)N[C@@H](CCCNC(=N)N)C(=O)N[C@@H](C)C(=O)N[C@@H](CCC(=O)O)C(=O)N[C@@H](CCC(N)=O)C(=O)N[C@@H](CC(C)C)C(=O)N[C@@H](C)C(=O)N[C@@H](CCC(N)=O)C(=O)N[C@@H](CCC(N)=O)C(=O)N[C@@H](C)C(=O)N[C@@H](Cc1c[nH]cn1)C(=O)N[C@@H](CO)C(=O)N[C@@H](CC(N)=O)C(=O)N[C@@H](CCCNC(=N)N)C(=O)N[C@@H](CCCCN)C(=O)N[C@@H](CC(C)C)C(=O)N[C@@H](CCSC)C(=O)N[C@@H](CCC(=O)O)C(=O)N[C@H](C(=O)N[C@H](C(N)=O)[C@@H](C)CC)[C@@H](C)CC [[D-Pro^4,Nle^21,38]-rCRF(4-41)] (H-[dP]PISLDLTFHLLREVLE[Nle]ARAEQLAQQAHSNRKLMEII-NH2)		very significant lowering of blood pressure		in an amount greater than oCRF	
H-SEEPPISLELTFHLLREVLE[Nle]ARAEQLAEQAHLNRKLMEII-NH2 [[Glu^9, Nle^21, Glu^29, Leu^33]-rCRF]	stimulates the secretion of ACTH and β-END-LI	very significant lowering of blood pressure			to a greater extent than rCRF
H-PPISLDLTFHLLREVLEMARAEQLAQQAHLNRKLMEQI-NH2	stimulates the secretion of ACTH and β-END-LI	very significant lowering of blood pressure			
H-SQEPPISLDLTLELLREMLEMAKAEQEAEQAALNRLYLEEA-NH2 [[Leu^12, Glu^13, Tyr^37]-AHC]	stimulates the secretion of ACTH and β-END-LI	very significant lowering of blood pressure			
CCCC[C@H](NC(=O)[C@@H](NC(=O)[C@H](CC(C)C)NC(=O)[C@H](CC(=O)O)NC(=O)[C@H](CC(C)C)NC(=O)[C@H](CO)NC(=O)[C@@H](NC(=O)[C@@H]1CCCN1C(=O)[C@@H]1CCCN1C(=O)[C@H](CCC(=O)O)NC(=O)CNC(=O)c1ccccc1)[C@@H](C)CC)[C@@H](C)O)C(=O)N[C@@H](Cc1c[nH]cn1)C(=O)N[C@@H](CC(C)C)C(=O)N[C@@H](CC(C)C)C(=O)N[C@@H](CCCNC(=N)N)C(=O)N[C@@H](CCC(=O)O)C(=O)N[C@H](C(=O)N[C@@H](CC(C)C)C(=O)N[C@@H](CCC(=O)O)C(=O)N[C@@H](CCSC)C(=O)N[C@@H](C)C(=O)N[C@@H](CCCNC(=N)N)C(=O)N[C@@H](C)C(=O)N[C@@H](CCC(=O)O)C(=O)N[C@@H](CCC(N)=O)C(=O)N[C@@H](CC(C)C)C(=O)N[C@@H](C)C(=O)N[C@@H](CCC(=O)O)C(=O)N[C@@H](CCC(N)=O)C(=O)N[C@@H](C)C(=O)N[C@@H](Cc1c[nH]cn1)C(=O)N[C@@H](CO)C(=O)N[C@@H](CC(N)=O)C(=O)N[C@@H](CCCNC(=N)N)C(=O)N[C@@H](CCCNC(=N)N)C(=O)N[C@@H](CC(C)C)C(=O)N[C@@H](CCSC)C(=O)N[C@@H](CCC(=O)O)C(=O)N[C@H](C(=O)N[C@H](C(N)=O)[C@@H](C)CC)[C@@H](C)CC)C(C)C (Bz-GEPPISLDLT[Nle]HLLREVLEMARAEQLAEQAHSNRRLMEII-NH2)	stimulates the secretion of ACTH and β-END-LI	very significant lowering of blood pressure			
H-SQEPPISLDLTFHLLREVLE[Nle]TKADQLAEQAHSNRKLLDIA-NH2 [[Nle^21,Glu^29]-oCRF]	stimulates the secretion of ACTH and β-END-LI	very significant lowering of blood pressure			
H-SQEPPISLDLTFHLLRE[Nle]LE[Nle]AKAEQEAEQAALNRLLLEEA-NH2 [[Nle^18, 21]-AHC]	stimulates the secretion of ACTH and β-END-LI	very significant lowering of blood pressure			
CC[C@H](C)[C@H](NC(=O)[C@@H](NC(=O)[C@H](CC(=O)O)NC(=O)[C@H](CC(C)C)NC(=O)[C@H](CC(C)C)NC(=O)[C@H](CC(C)C)NC(=O)[C@H](CCCNC(=N)N)NC(=O)[C@H](CC(N)=O)NC(=O)[C@H](CC(N)=O)NC(=O)[C@H](C)NC(=O)[C@H](C)NC(=O)[C@H](CCC(N)=O)NC(=O)[C@H](CCC(=O)O)NC(=O)[C@H](CCCCN)NC(=O)[C@H](CCC(=O)O)NC(=O)[C@H](CCCCN)NC(=O)[C@H](CCC(=O)O)NC(=O)[C@H](CCC(N)=O)NC(=O)[C@H](CCCCN)NC(=O)[C@H](CCCNC(=N)N)NC(=O)[C@H](C)NC(=O)[C@H](CCC(=O)O)NC(=O)[C@@H](NC(=O)[C@H](CCSC)NC(=O)[C@H](CCCCN)NC(=O)[C@H](CCCNC(=N)N)NC(=O)[C@H](CC(C)C)NC(=O)[C@H](CC(C)C)NC(=O)[C@H](CCC(=O)O)NC(=O)[C@H](CC(C)C)NC(=O)[C@H](CO)NC(=O)[C@H](CC(C)C)NC(=O)[C@H](CC(=O)O)NC(=O)[C@@H](NC(=O)[C@H](CO)NC(=O)[C@@H](NC(=O)[C@@H]1CCCN1C(=O)[C@@H]1CCCN1C(=O)CNC(=O)[C@@H]1CCC(=O)N1)[C@@H](C)CC)[C@@H](C)CC)[C@@H](C)CC)[C@@H](C)CC)C(N)=O	stimulates the secretion of ACTH and β-END-LI	very significant lowering of blood pressure			
H-SEEPPISLDLTFHLLREVLE[Nle]ARAEQLAQQAYLNRKLMEEI-NH2 [[Nle^21, Tyr^32, Leu^33, Glu^40]-rCRF]	stimulates the secretion of ACTH and β-END-LI	very significant lowering of blood pressure			to a greater extent than rCRF
H-SEEPPISLDLTFHLLREVLEMTRAEQLAEQAHSNRKLMEEI-NH2 [[Thr^22, Glu^29,40]-rCRF]	stimulates the secretion of ACTH and β-END-LI	very significant lowering of blood pressure			
